According to patent US20260285850A1, “SUBSTITUTED OXAZOLIDINONES AND IMIDAZOLINONES AS HERBICIDES” (FMC CORPORATION, priority 2023, published 2026):

Legend:
Type in all cases: in vivo
[1] = test system: ryegrass, Italian (italian ryegrass, Lolium multiflorum); test: Test A preemergence soil spray, visual injury rating 0-100; details: 10 days, 0 = no effect, 100 = complete control
Method in brief: (§1)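 Greenhouse test: loam/sand pots received a surfactant-containing formulation, as a preemergence directed soil spray or a postemergence spray on young plants. Injury was judged visually at day 10 relative to untreated controls.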

kochia (Bassia scoparia) [2] = test: as above; details: 10 days, 0 = no effect, 100 = complete control
Method in brief: as §1

[3] = test system: oat, wild (wild oat, Avena fatua); test: as above; details: 10 days, 0 = no effect, 100 = complete control
Method in brief: as §1

corn (Zea mays) [4] = test: as above; details: 10 days, 0 = no effect, 100 = complete control
Method in brief: as §1

[5] = test system: ragweed (common ragweed, Ambrosia artemisiifolia); test: as above; details: 10 days, 0 = no effect, 100 = complete control
Method in brief: as §1

soybean (Glycine max) [6] = test: as above; details: 10 days, 0 = no effect, 100 = complete control
Method in brief: as §1

[7] = test system: blackgrass (Alopecurus myosuroides); test: as above; details: 10 days, 0 = no effect, 100 = complete control
Method in brief: as §1

[8] = test system: green foxtail (Setaria viridis); test: as above; details: 10 days, 0 = no effect, 100 = complete control
Method in brief: as §1

[9] = test system: palmer (palmer amaranth, palmer pigweed, Amaranthus palmeri); test: as above; details: 10 days, 0 = no effect, 100 = complete control
Method in brief: as §1

[10] = test system: barnyardgrass (Echinochloa crus-galli); test: as above; details: 10 days, 0 = no effect, 100 = complete control
Method in brief: as §1

[11] = test system: wheat (Triticum aestivum); test: as above; details: 10 days, 0 = no effect, 100 = complete control
Method in brief: as §1

[12] = test system: ryegrass, Italian (italian ryegrass, Lolium multiflorum); test: Test A postemergence application, visual injury rating 0-100; details: 10 days
Method in brief: as §1

kochia (Bassia scoparia) [13] = test: as above; details: 10 days
Method in brief: as §1

[14] = test system: oat, wild (wild oat, Avena fatua); test: as above; details: 10 days
Method in brief: as §1

[15] = test system: galium (catchweed bedstraw, Galium aparine); test: as above; details: 10 days
Method in brief: as §1

corn (Zea mays) [16] = test: as above; details: 10 days
Method in brief: as §1

[17] = test system: ragweed (common ragweed, Ambrosia artemisiifolia); test: as above; details: 10 days
Method in brief: as §1

soybean (Glycine max) [18] = test: as above; details: 10 days
Method in brief: as §1

[19] = test system: blackgrass (Alopecurus myosuroides); test: as above; details: 10 days
Method in brief: as §1

[20] = test system: horseweed (Erigeron canadensis); test: as above; details: 10 days
Method in brief: as §1

[21] = test system: green foxtail (Setaria viridis); test: as above; details: 10 days
Method in brief: as §1

[22] = test system: palmer (palmer amaranth, palmer pigweed, Amaranthus palmeri); test: as above; details: 10 days
Method in brief: as §1

[23] = test system: barnyardgrass (Echinochloa crus-galli); test: as above; details: 10 days
Method in brief: as §1

[24] = test system: wheat (Triticum aestivum); test: as above; details: 10 days
Method in brief: as §1

rice (Oryza sativa) = test: Test B flooded paddy test, visual plant response rating 0-100; details: 250 g ai/ha, Flood, applied to paddy water, evaluated after 13 days
Method in brief: (§2)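 Compounds applied to standing paddy water (3 cm above soil, maintained for the test duration) on 2-leaf-stage plants; visual rating vs controls at 13 days, greenhouse.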

[25] = test system: sedge, umbrella (small-flower umbrella sedge, Cyperus difformis); test: as above; details: 250 g ai/ha, Flood, applied to paddy water, evaluated after 13 days
Method in brief: as §2

[26] = test system: barnyardgrass (Echinochloa crusgalli); test: as above; details: 250 g ai/ha, Flood, applied to paddy water, evaluated after 13 days
Method in brief: as §2

[27] = test system: ducksalad (Heteranthera limosa); test: as above; details: 250 g ai/ha, Flood, applied to paddy water, evaluated after 13 days
Method in brief: as §2

[28] = 31 g ai/ha, postemergence, 0 = no effect, 100 = complete control
[29] = Postemergence, 125 g ai/ha, 0 is no effect, 100 is complete control

CC1(C(=O)NC2C=CC(C(=O)OCc3ccc(F)cc3)C2)CN(c2cc(F)cc(F)c2)C(=O)O1 (stereo not shown) [Compound 54]
Ryegrass, Italian plant response rating (0-100) ([1]; 31 g ai/ha): 50
Ryegrass, Italian plant response rating (0 to 100 scale) ([1]; 125 g ai/ha): 100
Kochia plant response rating (0-100) (kochia (Bassia scoparia) [2]; 31 g ai/ha): 0
Kochia plant response rating (0 to 100 scale) (kochia (Bassia scoparia) [2]; 125 g ai/ha): 90
Oat, Wild plant response rating (0-100) ([3]; 31 g ai/ha): 0
Oat, Wild plant response rating (0 to 100 scale) ([3]; 125 g ai/ha): 90
Corn plant response rating (0-100) (corn (Zea mays) [4]; 31 g ai/ha): 0
Corn plant response rating (0 to 100 scale) (corn (Zea mays) [4]; 125 g ai/ha): 30
Ragweed plant response rating (0-100) ([5]; 31 g ai/ha): 0
Ragweed plant response rating (0 to 100 scale) ([5]; 125 g ai/ha): 0
Soybean plant response rating (0-100) (soybean (Glycine max) [6]; 31 g ai/ha): 10
Soybean plant response rating (0 to 100 scale) (soybean (Glycine max) [6]; 125 g ai/ha): 70
Blackgrass plant response rating (0-100) ([7]; 31 g ai/ha): 20
Blackgrass plant response rating (0 to 100 scale) ([7]; 125 g ai/ha): 60
Foxtail, Green plant response rating (0-100) ([8]; 31 g ai/ha): 0
Foxtail, Green plant response rating (0 to 100 scale) ([8]; 125 g ai/ha): 30
Amaranth, Palmer plant response rating (0-100) ([9]; 31 g ai/ha): 10
Amaranth, Palmer plant response rating (0 to 100 scale) ([9]; 125 g ai/ha): 100
Barnyardgrass plant response rating (0-100) ([10]; 31 g ai/ha): 30
Barnyardgrass plant response rating (0 to 100 scale) ([10]; 125 g ai/ha): 100
Wheat plant response rating (0-100) ([11]; 31 g ai/ha): 80
Wheat plant response rating (0 to 100 scale) ([11]; 125 g ai/ha): 90
Ryegrass, Italian plant response rating (0-100) [12, 28]: 70
Ryegrass, Italian plant response rating (0 to 100 scale) [12, 29]: 90
Kochia plant response rating (0-100) (kochia (Bassia scoparia) [13]; [28]): 70
Kochia plant response rating (0 to 100 scale) (kochia (Bassia scoparia) [13]; [29]): 90
Oat, Wild plant response rating (0-100) [14, 28]: 90
Oat, Wild plant response rating (0 to 100 scale) [14, 29]: 100
Galium plant response rating (0-100) [15, 28]: 80
Galium plant response rating (0 to 100 scale) [15, 29]: 80
Corn plant response rating (0-100) (corn (Zea mays) [16]; [28]): 90
Corn plant response rating (0 to 100 scale) (corn (Zea mays) [16]; [29]): 100
Ragweed plant response rating (0-100) [17, 28]: 50
Ragweed plant response rating (0 to 100 scale) [17, 29]: 60
Soybean plant response rating (0-100) (soybean (Glycine max) [18]; [28]): 60
Soybean plant response rating (0 to 100 scale) (soybean (Glycine max) [18]; [29]): 60
Blackgrass plant response rating (0-100) [19, 28]: 80
Blackgrass plant response rating (0 to 100 scale) [19, 29]: 90
Horseweed plant response rating (0-100) [20, 28]: 20
Horseweed plant response rating (0 to 100 scale) [20, 29]: 80
Foxtail, Green plant response rating (0-100) [21, 28]: 40
Foxtail, Green plant response rating (0 to 100 scale) [21, 29]: 60
Amaranth, Palmer plant response rating (0-100) [22, 28]: 90
Amaranth, Palmer / Pigweed, Palmer plant response rating (0 to 100 scale) [22, 29]: 100
Barnyardgrass plant response rating (0-100) [23, 28]: 70
Barnyardgrass plant response rating (0 to 100 scale) [23, 29]: 100
Wheat plant response rating (0-100) [24, 28]: 90
Wheat plant response rating (0 to 100 scale) [24, 29]: 90
Plant response rating, Rice (0 to 100 scale, 0 is no effect and 100 is complete control) (rice (Oryza sativa)): 15
Plant response rating, Sedge, Umbrella (0 to 100 scale, 0 is no effect and 100 is complete control) [25]: 95
Plant response rating, Barnyardgrass (0 to 100 scale, 0 is no effect and 100 is complete control) [26]: 90
Plant response rating, Ducksalad (0 to 100 scale, 0 is no effect and 100 is complete control) [27]: 95
